Experimental data as given in US9255090B2, “Heterocyclyl derivatives and their use as prostaglandin D2 receptor modulators” (Actelion Pharmaceuticals Ltd., priority 2012, dated 2016).

Biological target: hCRTH2 receptor (Homo sapiens (Human), UniProt Q9Y5Y4)
Experiment: hCRTH2 receptor membranes radioligand (3H-PGD2) displacement assay
Assay type: binding
Conditions: 3H-PGD2 radioligand displacement, HEK293-hCRTH2 membranes
Method in brief: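 Compound was first mixed with buffer, then 3H-PGD2 was added at 2.5 nM, and the reaction was started with hCRTH2 membranes from HEK293 cells at 20 μg/well. After 90 min at room temperature, mixtures were filtered and washed with ice-cold buffer, and retained radioactivity was counted.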

Chain of hCRTH2 receptor (Q9Y5Y4 whole entry): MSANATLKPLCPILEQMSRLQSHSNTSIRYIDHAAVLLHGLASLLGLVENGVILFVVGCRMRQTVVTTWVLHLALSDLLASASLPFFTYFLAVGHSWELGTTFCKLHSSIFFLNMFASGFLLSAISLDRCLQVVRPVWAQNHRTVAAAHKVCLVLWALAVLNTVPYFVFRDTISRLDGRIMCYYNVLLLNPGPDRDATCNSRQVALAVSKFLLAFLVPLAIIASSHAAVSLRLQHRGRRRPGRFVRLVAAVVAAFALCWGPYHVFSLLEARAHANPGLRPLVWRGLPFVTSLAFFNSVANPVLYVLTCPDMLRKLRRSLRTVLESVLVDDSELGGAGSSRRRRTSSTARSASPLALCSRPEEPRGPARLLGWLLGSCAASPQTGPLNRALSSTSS

| IC50 [nM] | SMILES |
| --- | --- |
| 35.9 | CCOc1ccc(CC(=O)O)cc1-c1ccc(F)c2c1CN(C(=O)CC1(c3ccccc3F)CC1)CC2 [Example 276, [4-Ethoxy-3-(5-fluoro-2-{2-[1-(2-fluoro-phenyl)-cyclopropyl]-acetyl}-1,2,3,4-tetrahydro-isoquinolin-8-yl)-phenyl]-acetic acid] |
| 91.4 | O=C(O)COc1ccc(F)cc1-c1cccc2c1CN(C(=O)OCc1ccccc1)CC2 [Example 173, 8-(2-Carboxymethoxy-5-fluoro-phenyl)-3,4-dihydro-1H-isoquinoline-2-carboxylic acid benzyl ester] |
| 8.56 | COc1ccc(C(C)C(=O)O)cc1-c1ccc(F)c2c1CN(C(=O)[C@@H]1C[C@H]1c1ccccc1)CC2 (mixture of isomers) [Example 120, (±)-2-{3-[5-Fluoro-2-((1R,2R)-2-phenyl-cyclopropanecarbonyl)-1,2,3,4-tetrahydro-isoquinolin-8-yl]-4-methoxy-phenyl}-propionic acid] |
| 123 | O=C(O)COc1ccc(Cl)c(-c2cccc3c2CN(C(=O)OCc2ccccc2)CC3)c1 [Example 181, 8-(5-Carboxymethoxy-2-chloro-phenyl)-3,4-dihydro-1H-isoquinoline-2-carboxylic acid benzyl ester] |
| 35.8 | COc1ccc(CC(=O)O)cc1-c1ccc(F)c2c1CN(C(=O)/C=C/c1ccccc1)CC2 [Example 85, (3-{5-Fluoro-2-[(E)-(3-phenyl-acryloyl)]-1,2,3,4-tetrahydro-isoquinolin-8-yl}-4-methoxy-phenyl)-acetic acid] |
| 10.9 | CCOc1ccc(CC(=O)O)cc1-c1ccc(F)c2c1CN(C(=O)NCc1ccccc1OC)CC2 [Example 437, {4-Ethoxy-3-[5-fluoro-2-(2-methoxy-benzylcarbamoyl)-1,2,3,4-tetrahydro-isoquinolin-8-yl]-phenyl}-acetic acid] |
| 40.7 | COc1ccc(CC(=O)O)cc1-c1ccc(F)c2c1CN(C(=O)OCCc1scnc1C)CC2 [Example 153, 8-(5-Carboxymethyl-2-methoxy-phenyl)-5-fluoro-3,4-dihydro-1H-isoquinoline-2-carboxylic acid 2-(4-methyl-thiazol-5-yl)-ethyl ester] |
| 158 | COc1ccc(CC(=O)O)cc1-c1ccc(F)c2c1CN(C(=O)CC1CCOc3ccc(F)cc31)CC2 (racemic) [Example 244] |
| 1.6 | CC(C)Oc1ccc(CC(=O)O)cc1-c1ccc(F)c2c1CN(C(=O)CC(C)c1ccccn1)CC2 (racemic) [Example 293] |
| 3.2 | Cc1cccc(C(C)CC(=O)N2CCc3c(F)ccc(-c4cc(CC(=O)O)ccc4OC(C)C)c3C2)n1 (racemic) [Example 294] |
| 0.8 | CCOc1cc(CC(=O)O)ccc1-c1ccc(F)c2c1CN(C(=O)OCc1cccc(C)n1)CC2 [Example 390, 8-(4-Carboxymethyl-2-ethoxy-phenyl)-5-fluoro-3,4-dihydro-1H-isoquinoline-2-carboxylic acid 6-methyl-pyridin-2-ylmethyl ester] |
| 5.9 | CCOc1cc(CC(=O)O)ccc1-c1ccc(F)c2c1CN(C(=O)OCC1CCCC1)CC2 [Example 392, 8-(4-Carboxymethyl-2-ethoxy-phenyl)-5-fluoro-3,4-dihydro-1H-isoquinoline-2-carboxylic acid cyclopentylmethyl ester] |
| 18.5 | COc1cc(CC(=O)O)cc(-c2ccc(F)c3c2CN(C(=O)OCc2ccccc2)CC3)c1 [Example 15, 8-(3-Carboxymethyl-5-methoxy-phenyl)-5-fluoro-3,4-dihydro-1H-isoquinoline-2-carboxylic acid benzyl ester] |
| 59.3 | CCOc1ccc(CC(=O)O)cc1-c1ccc(F)c2c1CN(C(=O)NCc1cccc(F)c1)CC2 [Example 433, {4-Ethoxy-3-[5-fluoro-2-(3-fluoro-benzylcarbamoyl)-1,2,3,4-tetrahydro-isoquinolin-8-yl]-phenyl}-acetic acid] |
| 7.8 | CCOc1cc(CC(=O)O)ccc1-c1ccc(F)c2c1CN(C(=O)CC(CC)c1ccccn1)CC2 (racemic) [Example 313] |
| 49.4 | CCOc1cc(CC(=O)O)ccc1-c1ccc(F)c2c1CN(C(=O)OCCC(C)C)CC2 [Example 393, 8-(4-Carboxymethyl-2-ethoxy-phenyl)-5-fluoro-3,4-dihydro-1H-isoquinoline-2-carboxylic acid 3-methyl-butyl ester] |
| 0.67 | O=C(O)COc1ccc(OC(F)(F)F)c(-c2ccc(F)c3c2CN(C(=O)[C@@H]2C[C@H]2c2ccccc2)CC3)c1 [Example 160, {3-[5-Fluoro-2-((1R,2R)-2-phenyl-cyclopropanecarbonyl)-1,2,3,4-tetrahydro-isoquinolin-8-yl]-4-trifluoromethoxy-phenoxy}-acetic acid] |
| 352 | COc1cccc(CC(=O)O)c1-c1ccc(F)c2c1CN(C(=O)OCc1ccccc1)CC2 [Example 418, 8-(2-Carboxymethyl-6-methoxy-phenyl)-5-fluoro-3,4-dihydro-1H-isoquinoline-2-carboxylic acid benzyl ester] |
| 1.8 | CCOc1cc(CC(=O)O)ccc1-c1ccc(F)c2c1CN(C(=O)CC1CC(C)(C)Oc3ccccc31)CC2 (racemic) [Example 323] |

| IC50 [nM] | SMILES |
| --- | --- |
| 1.9 | CC(C)Oc1ccc(CC(=O)O)cc1-c1ccc(F)c2c1CN(C(=O)CC1OCCc3ccccc31)CC2 (racemic) [Example 297] |
| 72.3 | COc1ccc(-c2ccc(F)c3c2CN(C(=O)OCc2ccccc2)CC3)cc1CC(=O)O [Example 13, 8-(3-Carboxymethyl-4-methoxy-phenyl)-5-fluoro-3,4-dihydro-1H-isoquinoline-2-carboxylic acid benzyl ester] |
| 11.3 | CCOc1cc(C(C)C(=O)O)ccc1-c1ccc(F)c2c1CN(C(=O)OCc1ccccc1)CC2 (racemic) [Example 425] |
| 19 | CCOc1ccc(CC(=O)O)cc1-c1ccc(F)c2c1CN(C(=O)OCCC(C)(C)OC)CC2 [Example 383, 8-(5-Carboxymethyl-2-ethoxy-phenyl)-5-fluoro-3,4-dihydro-1H-isoquinoline-2-carboxylic acid 3-methoxy-3-methyl-butyl ester] |
| 3.7 | CCOc1cc(CC(=O)O)ccc1-c1ccc(F)c2c1CN(C(=O)OCc1ccccn1)CC2 [Example 395, 8-(4-Carboxymethyl-2-ethoxy-phenyl)-5-fluoro-3,4-dihydro-1H-isoquinoline-2-carboxylic acid pyridin-2-ylmethyl ester] |
| 25.2 | O=C(O)Cc1cccc(-c2ccc(F)c3c2CN(C(=O)OCc2ccccc2)CC3)c1F [Example 16, 8-(3-Carboxymethyl-2-fluoro-phenyl)-5-fluoro-3,4-dihydro-1H-isoquinoline-2-carboxylic acid benzyl ester] |
| 35.8 | CCOc1cc(CC(=O)O)ccc1-c1ccc(F)c2c1CN(C(=O)O[C@H](C)c1ccccc1)CC2 [Example 385, 8-(4-Carboxymethyl-2-ethoxy-phenyl)-5-fluoro-3,4-dihydro-1H-isoquinoline-2-carboxylic acid (R)-1-phenyl-ethyl ester] |
| 32.1 | COc1ccc(CC(=O)O)cc1-c1ccc(F)c2c1CN(C(=O)CCc1ccccn1)CC2 [Example 91, {3-[5-Fluoro-2-(3-pyridin-2-yl-propionyl)-1,2,3,4-tetrahydro-isoquinolin-8-yl]-4-methoxy-phenyl}-acetic acid] |
| 17.7 | COc1ccc(CC(=O)O)cc1-c1ccc(F)c2c1CCN(C(=O)CCc1cn(C)c3ccccc13)C2 [Example 105, (3-{8-Fluoro-2-[3-(1-methyl-1H-indol-3-yl)-propionyl]-1,2,3,4-tetrahydro-isoquinolin-5-yl}-4-methoxy-phenyl)-acetic acid] |
| 3.4 | CCOc1ccc(CC(=O)O)cc1-c1ccc(F)c2c1CN(C(=O)CC(C)c1ccccc1F)CC2 (racemic) [Example 280] |
| 46.1 | CCOc1cc(CC(=O)O)ccc1-c1ccc(F)c2c1CN(C(=O)CCc1ncccc1OC)CC2 [Example 314, (3-Ethoxy-4-{5-fluoro-2-[3-(3-methoxy-pyridin-2-yl)-propionyl]-1,2,3,4-tetrahydro-isoquinolin-8-yl}-phenyl)-acetic acid] |
| 262 | COc1ccc(CC(=O)O)cc1-c1ccc(F)c2c1CN(C(=O)C1CCOc3ccccc31)CC2 (racemic) [Example 272] |
| 14.8 | CC(C)(CC(=O)N1CCc2c(F)ccc(-c3cc(CC(=O)O)ccc3OCC(F)(F)F)c2C1)c1ccccc1 [Example 300, [3-[5-Fluoro-2-(3-methyl-3-phenyl-butyryl)-1,2,3,4-tetrahydro-isoquinolin-8-yl]-4-(2,2,2-trifluoro-ethoxy)-phenyl]-acetic acid] |
| 70.5 | COc1ccc(/C=C/C(=O)N2CCc3c(F)ccc(-c4cc(CC(=O)O)ccc4OC)c3C2)cn1 [Example 86, (3-{5-Fluoro-2-[(E)-3-(6-methoxy-pyridin-3-yl)-acryloyl]-1,2,3,4-tetrahydro-isoquinolin-8-yl}-4-methoxy-phenyl)-acetic acid] |
| 37.8 | COc1ccc(CC(=O)O)cc1-c1ccc(Cl)c2c1CN(C(=O)CCn1ncc3ccccc31)CC2 [Example 72, {3-[5-Chloro-2-(3-indazol-1-yl-propionyl)-1,2,3,4-tetrahydro-isoquinolin-8-yl]-4-methoxy-phenyl}-acetic acid] |
| 418 | COc1ccc(CC(=O)O)cc1-c1ccc(F)c2c1CN(C(=O)COc1cccnc1)CC2 [Example 94, (3-{5-Fluoro-2-[2-(pyridin-3-yloxy)-acetyl]-1,2,3,4-tetrahydro-isoquinolin-8-yl}-4-methoxy-phenyl)-acetic acid] |
| 47.2 | COc1ccc(CC(=O)O)cc1-c1ccc(F)c2c1CN(C(=O)Cc1noc3ccccc13)CC2 [Example 121, {3-[2-(2-Benzo[d]isoxazol-3-yl-acetyl)-5-fluoro-1,2,3,4-tetrahydro-isoquinolin-8-yl]-4-methoxy-phenyl}-acetic acid] |
| 48.1 | COc1ccc(CC(=O)O)cc1-c1ccc(F)c2c1CN(C(=O)CC(c1ccccc1)c1ccc(Cl)cc1)CC2 (racemic) [Example 97, (±)-(3-{2-[3-(4-Chloro-phenyl)-3-phenyl-propionyl]-5-fluoro-1,2,3,4-tetrahydro-isoquinolin-8-yl}-4-methoxy-phenyl)-acetic acid] |
